Experimental data: patent US20250051345A1, “PYRIDINE-3-CARBOXYLATE COMPOUNDS AS CAV1.2 ACTIVATORS” (Novartis AG, priority 2021, published 2025)

How the values were obtained:
[1] = target: T1, human Cav1.2 (Homo sapiens (Human), UniProt Q13936); assay: Sophion QPatch dose-response assay, whole-cell voltage clamp of barium currents in the Cav1.2-HEK293 (AUX) cell line; format: cell-based; settings: for QPatch Emax: maximal fold change of peak inward current
Procedure: (§1) Clonal isolation was achieved under Neomycin selection.
(§2) Each experimental run uses 1.5 mL of cells.
(§3) The protocol had eight liquid periods. […] The protocol had four liquid periods.

[2] = Compound exposure in brain (cerebellum) and blood of wild-type mice; format: in vivo, mouse; settings: C57BL/6J male mice, i.p., one hour after administration
Text: (§4) Compound administration and brain tissue collection.
Quantification of compound exposure.

[3] = system: cFos mRNA; assay: cFos mRNA induction in cortex of wild-type mice (PK-PD); format: in vivo, mouse; settings: 3 mg/kg ip, one hour after administration
Procedure: as §4
Quantification of cFos mRNA induction. Tissue homogenization was performed using TissueLyser system for 96 well plates (Qiagen). First, frozen cortical samples were thawed, removed from RNAlater, and placed into TissueLyser tubes along with Buffer RLT containing 0.5% Reagent DX and one 5 mm TissueLyser metal bead. The TissueLyser tubes were loaded into a TissueLyser II tissue homogenizer for 3 rounds of homogenization, with each round lasting 5 minutes at 30 Hz bead-beating frequency. Total RNA was purified from the homogenate using RNeasy 96 Plus kit (Qiagen), RNA concentration and A260/A280 ratio were quantified via the Nanodrop (ThermoFisher), and all samples were normalized to 100 ng/μl concentration. […]
Quantitative PCR was performed on the cDNA samples using Quantitect Multiplex RT-PCR kit (Qiagen) in a 384-well assay format. […] On the ViiA7 Real-Time PCR system (ThermoFisher), the samples were heated to 95° C. for 15 minutes then cycled between 94° C. for 45 seconds and 60° C. for 45 seconds for 45 cycles. cFos Ct values were exported, normalized to GAPDH Ct values, and converted to relative fold change in expression using the delta-delta Ct relative quantification method. cFos fold changes between compound treatments and vehicle were analyzed by one-way ANOVA, followed by Tukey's post-hoc comparisons.

[4] = target: T1, human Cav1.2; assay: QPatch channel biophysics assay (V1/2 voltage shift, tau of inactivation) in the Cav1.2-HEK293 (AUX) cell line; format: cell-based
Procedure: as §1, §2, §3

[5] = 6-point dose response, 10 determinations per concentration, n = 1 unless stated
[6] = shift of half-way channel activation voltage V1/2
[7] = comparative examples, single enantiomers of reported racemates

T1 sequence (Q13936 whole entry): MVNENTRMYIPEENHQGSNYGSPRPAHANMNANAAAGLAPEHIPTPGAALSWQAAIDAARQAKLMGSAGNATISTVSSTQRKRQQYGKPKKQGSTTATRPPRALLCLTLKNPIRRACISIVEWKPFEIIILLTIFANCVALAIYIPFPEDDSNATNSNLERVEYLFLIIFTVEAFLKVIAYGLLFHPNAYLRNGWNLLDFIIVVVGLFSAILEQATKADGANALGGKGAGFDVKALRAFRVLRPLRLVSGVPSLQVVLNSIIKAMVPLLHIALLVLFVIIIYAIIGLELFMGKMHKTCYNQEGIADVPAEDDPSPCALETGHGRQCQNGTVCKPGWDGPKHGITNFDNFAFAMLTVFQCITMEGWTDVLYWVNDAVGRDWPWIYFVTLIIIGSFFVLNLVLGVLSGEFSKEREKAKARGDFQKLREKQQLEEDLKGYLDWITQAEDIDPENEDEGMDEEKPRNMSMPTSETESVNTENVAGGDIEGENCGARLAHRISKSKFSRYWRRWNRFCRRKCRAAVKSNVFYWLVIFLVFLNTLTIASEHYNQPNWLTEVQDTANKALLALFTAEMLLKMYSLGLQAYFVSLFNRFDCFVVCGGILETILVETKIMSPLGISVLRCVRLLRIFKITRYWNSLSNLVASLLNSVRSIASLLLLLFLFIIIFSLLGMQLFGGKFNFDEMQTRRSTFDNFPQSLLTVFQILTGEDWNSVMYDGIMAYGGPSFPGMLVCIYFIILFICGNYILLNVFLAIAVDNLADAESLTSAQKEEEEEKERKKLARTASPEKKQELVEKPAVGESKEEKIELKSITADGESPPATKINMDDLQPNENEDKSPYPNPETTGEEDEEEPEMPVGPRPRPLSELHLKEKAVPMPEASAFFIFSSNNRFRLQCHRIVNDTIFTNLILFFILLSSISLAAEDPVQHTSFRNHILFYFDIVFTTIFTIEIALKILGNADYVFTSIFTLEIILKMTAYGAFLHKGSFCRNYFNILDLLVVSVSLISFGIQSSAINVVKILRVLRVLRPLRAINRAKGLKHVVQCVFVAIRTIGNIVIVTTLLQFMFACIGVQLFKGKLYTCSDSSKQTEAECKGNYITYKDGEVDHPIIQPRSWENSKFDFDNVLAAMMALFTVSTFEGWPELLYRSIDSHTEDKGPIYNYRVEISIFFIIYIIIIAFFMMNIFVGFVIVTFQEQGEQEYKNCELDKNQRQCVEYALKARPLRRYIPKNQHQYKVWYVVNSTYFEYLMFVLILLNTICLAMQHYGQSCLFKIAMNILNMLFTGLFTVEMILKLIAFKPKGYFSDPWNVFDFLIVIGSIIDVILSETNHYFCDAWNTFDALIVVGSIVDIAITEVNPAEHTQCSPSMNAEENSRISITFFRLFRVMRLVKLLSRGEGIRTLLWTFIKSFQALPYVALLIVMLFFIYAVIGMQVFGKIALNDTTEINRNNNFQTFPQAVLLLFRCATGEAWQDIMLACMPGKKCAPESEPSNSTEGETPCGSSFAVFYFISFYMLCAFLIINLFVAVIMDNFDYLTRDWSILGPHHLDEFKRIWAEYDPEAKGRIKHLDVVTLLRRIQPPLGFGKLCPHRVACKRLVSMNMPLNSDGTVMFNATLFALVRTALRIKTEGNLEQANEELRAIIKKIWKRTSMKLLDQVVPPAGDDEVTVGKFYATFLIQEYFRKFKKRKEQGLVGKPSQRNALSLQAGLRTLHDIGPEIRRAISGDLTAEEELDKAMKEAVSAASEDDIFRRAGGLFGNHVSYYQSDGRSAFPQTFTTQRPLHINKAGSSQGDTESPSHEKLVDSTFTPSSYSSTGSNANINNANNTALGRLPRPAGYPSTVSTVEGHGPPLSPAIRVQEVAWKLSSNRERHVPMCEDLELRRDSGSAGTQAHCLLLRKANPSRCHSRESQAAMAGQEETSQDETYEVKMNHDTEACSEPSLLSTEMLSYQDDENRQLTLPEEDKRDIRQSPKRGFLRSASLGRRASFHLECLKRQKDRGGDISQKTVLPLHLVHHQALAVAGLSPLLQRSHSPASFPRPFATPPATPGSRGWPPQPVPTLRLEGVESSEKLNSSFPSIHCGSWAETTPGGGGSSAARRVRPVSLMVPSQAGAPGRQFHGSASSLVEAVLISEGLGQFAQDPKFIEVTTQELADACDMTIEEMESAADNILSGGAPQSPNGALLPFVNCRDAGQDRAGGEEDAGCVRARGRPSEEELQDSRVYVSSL

SMILES | EC50 [1, 5] | QPatch Emax [1] | Biophysics voltage shift [4, 6] | EC50 [1, 7] | QPatch Emax ([1]; comparative examples) | Biophysics voltage shift ([4]; comparative examples) | other results
COC(=O)C1=C(CF)NC2=C(C(=O)OC2)[C@H]1c1cncc(F)c1[C@@H](C)F [Example 2, methyl (R)-4-(5-fluoro-4-((R)-1-fluoroethyl)pyridin-3-yl)-2-(fluoromethyl)-5-oxo-1,4,5,7-tetrahydrofuro [3,4-b]pyridine-3-carboxylate] | 61 nM | 2.2 | −5.9 mV |  |  |  | activity in the Sophion QPatch assay relative to the enantiomer ([1]; comparison of stereoisomers): higher activity than its corresponding enantiomer; Kp at 1 h ([2]; mouse, brain (cerebellum) / blood, ip, 3 mg/kg, read-out: Brain: blood Ratio): 1.5; %↑ cFOS mRNA cortex [3]: 384%
CCOC(=O)C1=C(C)NC2=C(C(=O)OC2)[C@H]1c1ccccc1OC(F)F [Comparative Example 3, CGP028392] |  |  |  | 280 nM | 2.2 | −6.7 mV | 
CCOC(=O)C1=C(C)NC2=C(C(=O)OC2)C1c1ccccc1C(F)(F)F (stereo not shown) [Comparative Example 7] |  |  |  | 930 nM | 1.9 |  | 
COC(=O)C1=C(C)NC2=C(C(=O)OC2)[C@H]1c1cncc(F)c1[C@@H](C)F (single isomer, unassigned) [Example 1, methyl(S)-4-(5-fluoro-4-((R)-1-fluoroethyl)pyridin-3-yl)-2-methyl-5-oxo-1,4,5,7-tetrahydrofuro [3,4-b]pyridine-3-carboxylate or methyl(S)-4-(5-fluoro-4-((S)-1-fluoroethyl)pyridin-3-yl)-2-methyl-5-oxo-1,4,5,7-tetrahydrofuro [3,4-b]pyridine-3-carboxylate] | 220 nM | 3.3 | −6.6 mV |  |  |  | Brain: blood Ratio [2]: 0.2; %↑ cFOS mRNA cortex [3]: 174%
COC(=O)C1=C(C)NC(C)=C([N+](=O)[O-])[C@H]1c1ccccc1C(F)(F)F [Comparative Example 1, BayK8644] |  |  |  |  | 3.9 |  | 
COC(=O)C1=C(C)NC2=C(C(=O)OC2)C1c1ccccc1C(F)(F)F (stereo not shown) [Comparative Example 5] |  |  |  | 360 nM | 1.4 | −4.3 mV | 
COC(=O)C1=C(C)NC2=C(C(=O)OC2)C1c1ccccc1C (stereo not shown) [Comparative Example 4] |  |  |  | 2240 nM | 1.4 |  | 
COC(=O)C1=C(C(F)F)NC2=C(C(=O)OC2)[C@H]1c1cncc(F)c1[C@@H](C)F (single isomer, unassigned) [Example 6, methyl 2-(difluoromethyl)-4-(5-fluoro-4-(1-fluoroethyl)pyridin-3-yl)-5-oxo-1,4,5,7-tetrahydrofuro [3,4-b]pyridine-3-carboxylate] | 250 nM | 2.5 | −5.6 mV |  |  |  | 
CCOC(=O)C1=C(C)NC2=C(C(=O)OC2)[C@H]1c1ccccc1OCc1ccccc1 [Comparative Example 2, RS30124] |  |  |  | 450 nM | 4.3 | −15.4 mV | 
COC(=O)C1=C(C)NC2=C(C(=O)OC2)C1c1ccccc1OC(F)F (stereo not shown) [Comparative Example 6] |  |  |  | 510 nM | 1.7 | −7.1 mV | 
